{"source": "PubChem BioAssay AID2060506", "about": "(Molecular Pharmacology Branch, DTP, NCI, 2025)", "system": "598228-144-R-J1-PDC complex spheroid viability", "assay": "Anticancer human tumor 598228-144-R-J1-PDC patient-derived serous endometrial adenocarcinoma cell line growth inhibition [GQUAD]", "details": "for viability, T/C: stronger effect = lower value", "description": "DNA G-quadruplex Stabilizer Agents in Combinations in Complex Spheroids\nA high-throughput screen of multi-cell type tumor spheroids was designed to identify active combinations of DNA G-quadruplex stabilizer agents and targeted small molecules. Complex spheroids include a stromal component modeled by human endothelial cells (HUVEC) and fibroblasts modeled by human mesenchymal stem cells (MSCs). The concentration ranges selected for each drug and investigational agent were based upon clinically achievable concentrations if the clinical Cmax of the agent was known.\nCompounds. The drugs and investigational agents: pidnarulex (CX-5461; NSC782164), APTO-253 (NSC789042), BRACO-19 (NSC847499), peposertib (NSC802822), ceralasertib (NSC780249), elimusertib (NSC800525), camonsertib (NSC841442), AZD-1390 (NSC803789), olaparib (NSC753686), talazoparib (NSC767125), ART-558 (NSC835418), sotorasib (NSC818433), MRTX-1133 (NSC836407), SN-38 (NSC673596), topotecan (NSC609699), etoposide (NSC141540), doxorubicin (NSC123127), gemcitabine (NSC613327), 5-fluorouracil (NSC19893), paclitaxel (NSC125973), vemurafenib (NSC761431), panobinostat (NSC761190), R-306465 (JNJ-16241199; NSC773264), adavosertib (NSC754352), TP-3654 (NSC805149), carboplatin (NSC241240), KSQ-4279 (NSC840948), and staurosporine (NSC755774) were obtained from the National Cancer Institute (NCI) Developmental Therapeutics Program Chemical Repository (34). The FDA-approved anticancer drug set is available from the NCI Developmental Therapeutics Program. […] The stock solutions were prepared in dimethyl sulfoxide (DMSO, Sigma-Aldrich, St. Louis, MO, cat. D2650) at 800-fold the tested concentration and stored at -70 degrees C prior to their use. All drugs and investigational agents were tested over a range starting from a high concentration at or near the clinical Cmax and decreasing in half-log increments. If the clinical Cmax for an agent had not been determined, the highest concentration tested was 10 microM.\n2.3 Cell Culture. All cells were maintained in an incubator at 37 degrees C and 5% CO2 with 95% humidity. The PDC lines were cultured according to standard operating procedures established by the NCI PDMR. All PDCs were thawed and cultured in Matrigel-coated flasks prepared with a working solution of 1X Ham's F-12 nutrient mix, without supplementation (Invitrogen, cat. 11765054), 100 U/mL penicillin-streptomycin (Invitrogen, cat. 15140122), and 2.5% Matrigel (Corning Inc., cat. 354248) for the first three passages. The 857933-349-R-J2-PDC line was cultured in 6C/Colon 1B media, which includes advanced DMEM/F-12 (Thermo Fisher Scientific, cat. 12634028), 10 mM HEPES (Thermo Fisher Scientific, cat. 15630080), 1X GlutaMAX supplement (Thermo Fisher Scientific, cat. 35050061), 0.1 mg/mL primocin (InvivoGen, cat. ant-pm-2), 10% defined fetal bovine serum, heat inactivated (HyClone Laboratories Inc., cat. SH30070.03HI), 50% L-WRN conditioned media (ATCC, cat. CRL-3276), 1.25 mM N-Acetyl-L-cysteine (Sigma-Aldrich, cat. A9165), 10 mM nicotinamide (Sigma-Aldrich, cat. N0636), 1X B-27 supplement (Thermo Fisher Scientific, cat. 17504044), 1X N-2 supplement (Thermo Fisher Scientific, cat. 17502048), 10 microM Y-27632 dihydrochloride (Tocris Bioscience, cat. 1254), and 50 ng/mL human EGF recombinant protein (Thermo Fisher Scientific, cat. PHG0311). The 485176-168-R4-J1-PDC line was cultured in Panc media, which includes all 6C/Colon 1B media components plus 100 ng/mL human FGF-10 (Thermo Fisher Scientific, cat. 100-26), 500 nM SB-431542 (Selleckchem, cat. S1067), and gastrin (Tocris, cat. 3006).\n[…]", "note": "“And” between values parts separate entries of the source, which are not always exact repeats. Equal entries are not always repeated.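 Further: spheroids exposed to the agents for one week before reading.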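 Wherever viability, T/C is given: percent of vehicle DMSO control viability so 100% = untreated growth.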"}
{"smiles": "Cn1ncnc1[C@H]1c2n[nH]c(=O)c3cc(F)cc(c23)N[C@@H]1c1ccc(F)cc1", "values": [{"measurement": "viability, T/C", "setting": "compound 0.000999 µM", "result": "102% and 87.8% and 113%"}, {"measurement": "viability, T/C", "setting": "compound 0.00316 µM", "result": "108% and 103% and 91.4%"}, {"measurement": "viability, T/C", "setting": "compound 0.00999 µM", "result": "73.5% and 93.9% and 92.7%"}, {"measurement": "viability, T/C", "setting": "compound 0.0316 µM", "result": "101% and 75.7% and 85.6%"}, {"measurement": "viability, T/C", "setting": "compound 0.0999 µM", "result": "90.7% and 71.7% and 88%"}, {"measurement": "viability, T/C", "setting": "compound 0.316 µM", "result": "73.6% and 88.2% and 69.7%"}, {"measurement": "IC50", "setting": "curve of compound", "result": "> 316", "unit": "nM"}]}
{"smiles": "COc1ncnc(C2CC2)c1-c1ncc2cnn(Cc3ccc(-c4nc(C(F)(F)F)cn4C(C)C)cc3)c2n1", "values": [{"measurement": "viability, T/C", "setting": "compound 0.0316 µM", "result": "112% and 120% and 109%"}, {"measurement": "viability, T/C", "setting": "compound 0.1 µM", "result": "99.5% and 93.3% and 79.8%"}, {"measurement": "viability, T/C", "setting": "compound 0.316 µM", "result": "107% and 103% and 102%"}, {"measurement": "viability, T/C", "setting": "compound 1 µM", "result": "106% and 104% and 102%"}, {"measurement": "viability, T/C", "setting": "compound 3.16 µM", "result": "97.8% and 112% and 113%"}, {"measurement": "viability, T/C", "setting": "compound 10 µM", "result": "105% and 117% and 89%"}, {"measurement": "IC50", "setting": "curve of compound", "result": "> 10000", "unit": "nM"}]}
{"smiles": "C=CC(=O)N1CCN(c2nc(=O)n(-c3c(C)ccnc3C(C)C)c3nc(-c4c(O)cccc4F)c(F)cc23)C(C)C1", "note": "(stereo not drawn)", "values": [{"measurement": "viability, T/C", "setting": "compound 0.0316 µM", "result": "89% and 91.5% and 95%"}, {"measurement": "viability, T/C", "setting": "compound 0.1 µM", "result": "106% and 107% and 112%"}, {"measurement": "viability, T/C", "setting": "compound 0.316 µM", "result": "102% and 127% and 100%"}, {"measurement": "viability, T/C", "setting": "compound 1 µM", "result": "155% and 112% (2×)"}, {"measurement": "viability, T/C", "setting": "compound 3.16 µM", "result": "145% and 124% and 111%"}, {"measurement": "viability, T/C", "setting": "compound 10 µM", "result": "113% and 108% and 106%"}, {"measurement": "IC50", "setting": "curve of compound", "result": "> 10000", "unit": "nM"}]}
{"smiles": "Nc1ccn(C2OC(CO)C(O)C2(F)F)c(=O)n1", "note": "(stereo not drawn) + CN(C)c1ccc(Nc2c3ccc(NC(=O)CCN4CCCC4)cc3nc3cc(NC(=O)CCN4CCCC4)ccc23)cc1", "values": [{"measurement": "IC50", "setting": "curve of first compound, second compound 0.0316 µM", "result": "< 31.6", "unit": "nM"}, {"measurement": "IC50", "setting": "curve of first compound, second compound 0.1 µM", "result": "< 31.6", "unit": "nM"}, {"measurement": "IC50", "setting": "curve of first compound, second compound 0.316 µM", "result": 38.9, "unit": "nM"}, {"measurement": "IC50", "setting": "curve of first compound, second compound 1 µM", "result": 75.5, "unit": "nM"}, {"measurement": "IC50", "setting": "curve of first compound, second compound 3.16 µM", "result": 91.7, "unit": "nM"}, {"measurement": "IC50", "setting": "curve of first compound, second compound 10 µM", "result": "< 31.6", "unit": "nM"}, {"measurement": "viability, T/C", "setting": "second compound 0.0316 µM, first compound 0.0316 µM", "result": 49.8, "unit": "%"}, {"measurement": "viability, T/C", "setting": "second compound 0.0316 µM, first compound 0.1 µM", "result": 42.5, "unit": "%"}, {"measurement": "viability, T/C", "setting": "second compound 0.0316 µM, first compound 0.316 µM", "result": 39.4, "unit": "%"}, {"measurement": "viability, T/C", "setting": "second compound 0.0316 µM, first compound 1 µM", "result": 36.3, "unit": "%"}, {"measurement": "viability, T/C", "setting": "second compound 0.0316 µM, first compound 3.16 µM", "result": 39.8, "unit": "%"}, {"measurement": "viability, T/C", "setting": "second compound 0.0316 µM, first compound 10 µM", "result": 37.5, "unit": "%"}, {"measurement": "viability, T/C", "setting": "second compound 0.1 µM, first compound 0.0316 µM", "result": 52.4, "unit": "%"}, {"measurement": "viability, T/C", "setting": "second compound 0.1 µM, first compound 0.1 µM", "result": 41.9, "unit": "%"}, {"measurement": "viability, T/C", "setting": "second compound 0.1 µM, first compound 0.316 µM", "result": 38.6, "unit": "%"}, {"measurement": "viability, T/C", "setting": "second compound 0.1 µM, first compound 1 µM", "result": 43.2, "unit": "%"}, {"measurement": "viability, T/C", "setting": "second compound 0.1 µM, first compound 3.16 µM", "result": 57.3, "unit": "%"}, {"measurement": "viability, T/C", "setting": "second compound 0.1 µM, first compound 10 µM", "result": 49.5, "unit": "%"}, {"measurement": "viability, T/C", "setting": "second compound 0.316 µM, first compound 0.0316 µM", "result": 49.3, "unit": "%"}, {"measurement": "viability, T/C", "setting": "second compound 0.316 µM, first compound 0.1 µM", "result": 51.6, "unit": "%"}, {"measurement": "viability, T/C", "setting": "second compound 0.316 µM, first compound 0.316 µM", "result": 43.3, "unit": "%"}, {"measurement": "viability, T/C", "setting": "second compound 0.316 µM, first compound 1 µM", "result": 43.2, "unit": "%"}, {"measurement": "viability, T/C", "setting": "second compound 0.316 µM, first compound 3.16 µM", "result": 45.8, "unit": "%"}, {"measurement": "viability, T/C", "setting": "second compound 0.316 µM, first compound 10 µM", "result": 43.6, "unit": "%"}, {"measurement": "viability, T/C", "setting": "second compound 1 µM, first compound 0.0316 µM", "result": 60.8, "unit": "%"}, {"measurement": "viability, T/C", "setting": "second compound 1 µM, first compound 0.1 µM", "result": 51.3, "unit": "%"}, {"measurement": "viability, T/C", "setting": "second compound 1 µM, first compound 0.316 µM", "result": 35.4, "unit": "%"}, {"measurement": "viability, T/C", "setting": "second compound 1 µM, first compound 1 µM", "result": 33.1, "unit": "%"}, {"measurement": "viability, T/C", "setting": "second compound 1 µM, first compound 3.16 µM", "result": 41.5, "unit": "%"}, {"measurement": "viability, T/C", "setting": "second compound 1 µM, first compound 10 µM", "result": 43.4, "unit": "%"}, {"measurement": "viability, T/C", "setting": "second compound 3.16 µM, first compound 0.0316 µM", "result": 58.8, "unit": "%"}, {"measurement": "viability, T/C", "setting": "second compound 3.16 µM, first compound 0.1 µM", "result": 45.5, "unit": "%"}, {"measurement": "viability, T/C", "setting": "second compound 3.16 µM, first compound 0.316 µM", "result": 49.7, "unit": "%"}, {"measurement": "viability, T/C", "setting": "second compound 3.16 µM, first compound 1 µM", "result": 37.5, "unit": "%"}, {"measurement": "viability, T/C", "setting": "second compound 3.16 µM, first compound 3.16 µM", "result": 45.6, "unit": "%"}, {"measurement": "viability, T/C", "setting": "second compound 3.16 µM, first compound 10 µM", "result": 36.4, "unit": "%"}, {"measurement": "viability, T/C", "setting": "second compound 10 µM, first compound 0.0316 µM", "result": 44.1, "unit": "%"}, {"measurement": "viability, T/C", "setting": "second compound 10 µM, first compound 0.1 µM", "result": 28.5, "unit": "%"}, {"measurement": "viability, T/C", "setting": "second compound 10 µM, first compound 0.316 µM", "result": 29.6, "unit": "%"}, {"measurement": "viability, T/C", "setting": "second compound 10 µM, first compound 1 µM", "result": 26.2, "unit": "%"}, {"measurement": "viability, T/C", "setting": "second compound 10 µM, first compound 3.16 µM", "result": 24, "unit": "%"}, {"measurement": "viability, T/C", "setting": "second compound 10 µM, first compound 10 µM", "result": 26.9, "unit": "%"}]}
